What all share (format): cell-based
The target in experiment [1] is T1, BB3 (Homo sapiens, UniProt P32247).
T1 construct: hIL-2Ra signal peptide (N); expressed in transfected cells
T1 sequence (P32247 2-399 limits assumed): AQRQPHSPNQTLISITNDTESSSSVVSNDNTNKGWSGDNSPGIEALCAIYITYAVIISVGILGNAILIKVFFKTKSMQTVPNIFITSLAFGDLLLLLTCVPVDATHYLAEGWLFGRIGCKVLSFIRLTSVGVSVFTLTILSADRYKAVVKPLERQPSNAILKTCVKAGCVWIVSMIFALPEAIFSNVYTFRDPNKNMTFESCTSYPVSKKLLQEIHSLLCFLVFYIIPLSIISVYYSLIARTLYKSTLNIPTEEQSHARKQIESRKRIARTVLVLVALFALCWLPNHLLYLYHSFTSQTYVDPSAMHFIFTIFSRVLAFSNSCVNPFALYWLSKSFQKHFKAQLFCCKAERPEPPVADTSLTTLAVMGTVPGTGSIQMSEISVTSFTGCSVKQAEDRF
Kind of experiment: IP1 accumulation (Gq/11), HTRF. Conditions: mean, SEM and n (2-4).

Experiment [2] has as its target T1, BB3. Kind of experiment: Dynamic mass redistribution (DMR), concentration-response. Conditions: mean, SEM and n (3).
Experiment [3] addresses T1, BB3. Kind of experiment: Real-time receptor internalization (TR-FRET), concentration-response. The note with it: SNAP-tagged BB3 in Flp-In T-REx 293 cells; TR-FRET 60 min, 37°C; AUC; mean ± SEM of 3-4 independent experiments in triplicate; read-out: pEC50, internalization, BB3 (converted). For orientation: Time-resolved FRET reads energy transfer from a long-lived donor to a nearby acceptor.

The target in experiment [4] is GPR55 (Homo sapiens, UniProt Q9Y2T6). The experiment is described as above. Set-up: hIL-2Ra signal peptide (N); expressed in transfected cells. As for the experimental part:
48 hr prior to parallel assaying, SNAP-tagged oGPCR cells were plated (10,000 cells/well) in fibronectin-coated 384-well Epic biosensor microplates (Corning) and poly-D-lysine coated white 384-well plates (for internalization assays). SNAP- GLP-1 receptor was plated alongside orphan receptor cells as an internal assay control for internalization assays. Receptor-expression was induced with 0.1 μg/ml doxycycline.
A TR-FRET real-time internalization assay was used to examine peptide-dependent changes in orphan receptor localization as described previously ([Foster and Bräuner-Osborne, 2018]). Surface-expressed SNAP-tagged receptors were labeled with a cell-impermeable luminescent terbium cryptate (100 nM SNAP Lumi4-Tb; Cisbio, France) for 1 hr at 37°C. Cells were washed to remove excess terbium and incubated with fluorescein-O-acetic acid (100 μM; Sigma Aldrich) for 5 min at 37°C. Peptides were added as for DMR assays, and internalization responses were recorded for 60 min at 37°C using an EnVision 2104 Multimode plate reader (PerkinElmer). 100 nM GLP-1 was used as a positive control for SNAP-GLP1R internalization. Real-time internalization responses were calculated based on TR-FRET (excitation 340 nm; emission 520 nm and 615 nm), and were expressed as the ratio between donor (terbium) and acceptor (fluorescein) emission. For peptide screening analysis (both DMR and internalization assays), we calculated the area under the curve from the real-time traces. […] Validation experiments for receptor internalization were performed as above. Internalization data was processed in MS-Excel and area under the curve was used to generate concentration-response curves using GraphPad Prism 7.0. Data represent mean ± standard error of the mean (SEM) from at least 3 biologically independent experiments.

For experiment [5], the target named is T2, GPR1 (Homo sapiens, UniProt P46091).
T2 sequence (P46091 1-355): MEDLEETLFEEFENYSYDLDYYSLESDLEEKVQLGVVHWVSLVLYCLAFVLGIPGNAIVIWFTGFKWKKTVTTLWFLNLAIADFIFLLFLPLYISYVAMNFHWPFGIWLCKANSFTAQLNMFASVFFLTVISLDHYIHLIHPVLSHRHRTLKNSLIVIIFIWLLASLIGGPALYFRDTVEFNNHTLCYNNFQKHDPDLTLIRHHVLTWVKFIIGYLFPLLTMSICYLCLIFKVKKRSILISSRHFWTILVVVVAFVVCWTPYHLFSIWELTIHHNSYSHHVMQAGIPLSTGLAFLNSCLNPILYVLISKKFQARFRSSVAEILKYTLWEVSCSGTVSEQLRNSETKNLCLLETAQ
Put plainly: β-arrestin recruitment (Tango), validation. Set-up: host or cells: HTLA cells (HEK293-derived). The note with it: receptor GPR1; mean, SEM and n (2-3); read-out: b-arrestin recruitment assays (Tango) pEC50 (converted). For orientation: Arrestin recruitment assays detect the binding of arrestin to an activated receptor.

In experiment [6] the target is T2, GPR1. Put plainly: β-arrestin recruitment (PathHunter). Conditions: receptor GPR1; mean, SEM and n (2-3); read-out: b-arrestin recruitment assays (PathHunter) pEC50 (converted). As to the method:
PathHunter eXpress Assays (DiscoverX) were performed in 384-well format according to the manufacturer’s recommendations. GPR1 cells were incubated with peptides for 90 min and luminescence measured using an EnSpire 2300 Multimode plate reader (PerkinElmer).

[7] abbreviates: IP1 accumulation assays pEC50, receptor BB3.
The mark [8] stands for this setting: receptor BB3, read-out: IP1 accumulation assays pEC50 (converted).
[9] abbreviates: receptor BB3, read-out: DMR assays pEC50 (converted).
Where [10] appears, read: receptor GPR55, mean, SEM and n (3-4), read-out: Internalization assays pEC50 (converted).

Read-outs that look alike come from different tables or passages of the source. Residues, ends and D or L forms follow the SMILES beside them. A value given as a limit tells only on which side of the number the result lay.

Sequence of GPR55 (Q9Y2T6 2-319 limits assumed): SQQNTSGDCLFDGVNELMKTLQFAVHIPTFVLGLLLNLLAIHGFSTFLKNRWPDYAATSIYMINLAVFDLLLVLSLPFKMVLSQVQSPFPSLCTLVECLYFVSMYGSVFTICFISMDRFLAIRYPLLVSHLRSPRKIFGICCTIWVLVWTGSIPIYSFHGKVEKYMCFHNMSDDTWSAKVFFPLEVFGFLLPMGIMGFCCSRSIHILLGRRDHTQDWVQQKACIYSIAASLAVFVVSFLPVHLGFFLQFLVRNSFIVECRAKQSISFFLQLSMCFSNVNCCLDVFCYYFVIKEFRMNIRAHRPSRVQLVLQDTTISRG

In the case of `CSCC[C@H](NC(=O)[C@H](Cc1ccccc1)NC(=O)CNC(=O)CNC(=O)[C@@H](N)Cc1ccc(O)cc1)C(=O)O` [158.1 (Phoenix)], the EC50 was 12.6 nM in experiment [1] (setting [7]) and 64.6 nM in experiment [2] (DMR assays pEC50, receptor BB3). Turning to `CC(C)C[C@H](NC(=O)[C@H](CCCCN)NC(=O)[C@H](CCC(N)=O)NC(=O)[C@@H](NC(=O)[C@H](CCCCN)NC(=O)[C@H](CO)NC(=O)[C@H](Cc1ccc(O)cc1)NC(=O)[C@H](Cc1c[nH]cn1)NC(=O)[C@H](Cc1ccccc1)NC(=O)[C@H](CC(C)C)NC(=O)[C@@H](N)Cc1ccccc1)[C@@H](C)O)C(=O)NCC(=O)N[C@@H](CCCCN)C(=O)N[C@@H](CO)C(=O)N[C@@H](CC(N)=O)C(=O)N[C@H](C(=O)N[C@H](C(=O)N[C@@H](CO)C(=O)N[C@@H](CO)C(=O)N[C@H](C(=O)N[C@H](C(=O)N[C@@H](Cc1c[nH]cn1)C(=O)N1CCC[C@H]1C(=O)N[C@@H](CC(C)C)C(=O)N[C@@H](CC(C)C)C(=O)N[C@@H](CCC(N)=O)C(=O)N[C@@H](CC(C)C)C(=O)N[C@H](C(=O)N1CCC[C@H]1C(=O)N[C@@H](Cc1c[nH]cn1)C(=O)N[C@@H](CC(C)C)C(=O)N[C@@H](Cc1c[nH]cn1)C(=O)N[C@@H](CCC(=O)O)C(=O)O)C(C)C)C(C)C)C(C)C)C(C)C)C(C)C` [Peptide 67.1] (H-FLFHYSKTQKLGKSNVVSSVVHPLLQLVPHLHE-OH), the EC50 in experiment [1] (setting [8]) is 4270 nM; in experiment [2] (setting [9]), 32400 nM.

Take `CSCC[C@H](NC(=O)[C@H](CCCNC(=N)N)NC(=O)[C@H](CCCNC(=N)N)NC(=O)[C@H](CCC(=O)O)NC(=O)[C@H](Cc1c[nH]cn1)NC(=O)[C@H](CC(C)C)NC(=O)[C@H](Cc1c[nH]cn1)NC(=O)[C@@H]1CCCN1C(=O)[C@@H](NC(=O)[C@H](CC(C)C)NC(=O)[C@H](CCC(N)=O)NC(=O)[C@H](CC(C)C)NC(=O)[C@H](CC(C)C)NC(=O)[C@@H]1CCCN1C(=O)[C@H](Cc1c[nH]cn1)NC(=O)[C@@H](NC(=O)[C@@H](NC(=O)[C@H](CO)NC(=O)[C@H](CO)NC(=O)[C@@H](NC(=O)[C@@H](NC(=O)[C@H](CC(N)=O)NC(=O)[C@H](CO)NC(=O)[C@H](CCCCN)NC(=O)CNC(=O)[C@H](CC(C)C)NC(=O)[C@H](CCCCN)NC(=O)[C@H](CCC(N)=O)NC(=O)[C@@H](NC(=O)[C@H](CCCCN)NC(=O)[C@H](CO)NC(=O)[C@H](Cc1ccc(O)cc1)NC(=O)[C@H](Cc1c[nH]cn1)NC(=O)[C@H](Cc1ccccc1)NC(=O)[C@H](CC(C)C)NC(=O)[C@@H](N)Cc1ccccc1)[C@@H](C)O)C(C)C)C(C)C)C(C)C)C(C)C)C(C)C)C(=O)O` [Peptide 67.2] (H-FLFHYSKTQKLGKSNVVSSVVHPLLQLVPHLHERRM-OH): the EC50 is 1170 nM in experiment [1] (setting [8]) and 38000 nM in experiment [2] (setting [9]). With `CC(C)C[C@H](NC(=O)[C@H](CCCCN)NC(=O)[C@H](CCC(N)=O)NC(=O)[C@@H](NC(=O)[C@H](CCCCN)NC(=O)[C@H](CO)NC(=O)[C@H](Cc1ccc(O)cc1)NC(=O)[C@H](Cc1c[nH]cn1)NC(=O)[C@H](Cc1ccccc1)NC(=O)[C@H](CC(C)C)NC(=O)[C@@H](N)Cc1ccccc1)[C@@H](C)O)C(N)=O` [Peptide 67] (H-FLFHYSKTQKL-NH2; N-terminus assumed), in experiment [3], the EC50 is more than 10000 nM.

As to `CC[C@H](C)[C@H](NC(=O)[C@H](CC(=O)O)NC(=O)[C@@H](NC(=O)[C@H](Cc1ccc(O)cc1)NC(=O)[C@@H](NC(=O)CNC(=O)[C@H](CC(N)=O)NC(=O)[C@@H](NC(=O)[C@H](CC(C)C)NC(=O)[C@H](Cc1ccc(O)cc1)NC(=O)[C@H](CC(=O)O)NC(=O)[C@H](CC(C)C)NC(=O)[C@H](CCCNC(=N)N)NC(=O)[C@H](CO)NC(=O)[C@H](Cc1ccc(O)cc1)NC(=O)[C@H](CCCNC(=N)N)NC(=O)[C@@H](N)CCCCN)[C@@H](C)CC)[C@@H](C)CC)C(C)C)C(=O)O` [Peptide 114] (H-KRYSRLDYLINGIYVDI-OH; N-terminus assumed), the EC50 in experiment [4] (read-out: pEC50, internalization, GPR55 (converted)) was more than 10000 nM. As for `CSCC[C@H](NC(=O)[C@H](Cc1ccccc1)NC(=O)CNC(=O)CNC(=O)[C@@H](N)Cc1ccc(O)cc1)C(=O)N[C@@H](CCCNC(=N)N)C(=O)N[C@@H](CCCNC(=N)N)C(=O)N[C@H](C(N)=O)C(C)C` [Peptide 158.3], the EC50 in experiment [1] (setting [7]) was 89.1 nM; in experiment [2] (DMR assays pEC50, receptor BB3), 15500 nM. The corresponding values for `CSCC[C@H](NC(=O)[C@H](Cc1ccccc1)NC(=O)CNC(=O)CNC(=O)[C@@H](N)Cc1ccc(O)cc1)C(=O)N[C@@H](CCCNC(=N)N)C(=O)N[C@@H](CCCNC(=N)N)C(=O)N[C@H](C(=O)NCC(=O)N[C@@H](CCCNC(=N)N)C(=O)N1CCC[C@H]1C(=O)N[C@@H](CCC(=O)O)C(=O)N[C@@H](Cc1c[nH]c2ccccc12)C(=O)N[C@@H](Cc1c[nH]c2ccccc12)C(=O)N[C@@H](CCSC)C(=O)N[C@@H](CC(=O)O)C(=O)N[C@@H](Cc1ccc(O)cc1)C(=O)N[C@@H](CCC(N)=O)C(=O)O)C(C)C` [Peptide 158.5] (H-YGGFMRRVGRPEWWMDYQ-OH) are 100 nM and 69200 nM. Turning to `CSCC[C@H](NC(=O)[C@H](CCCCN)NC(=O)[C@@H](NC(=O)[C@H](CC(C)C)NC(=O)[C@@H](NC(=O)[C@@H](NC(=O)CNC(=O)CNC(=O)CNC(=O)[C@H](C)NC(=O)[C@@H]1CCCN1C(=O)[C@H](CC(C)C)NC(=O)[C@@H]1CCCN1C(=O)[C@@H](N)C(C)C)[C@@H](C)O)C(C)C)[C@@H](C)O)C(=O)N[C@@H](Cc1ccc(O)cc1)C(=O)N1CCC[C@H]1C(=O)N[C@@H](CCCNC(=N)N)C(=O)O` [Peptide 167.2] (H-VPLPAGGGTVLTKMYPR-OH), the results for the EC50 in experiment [1] (setting [8]), in experiment [5] and in experiment [6] were 525 nM, 3020 nM and 2290 nM, respectively.

Consider `CC(C)C[C@H](NC(=O)[C@@H](NC(=O)[C@H](C)NC(=O)[C@H](C)NC(=O)[C@H](CC(C)C)NC(=O)[C@@H](N)Cc1ccc(O)cc1)C(C)C)C(N)=O` [Peptide 168.2] (H-YLAAVL-NH2), for which the EC50 in experiment [4] (setting [10]) was 20400 nM. Regarding `CSCC[C@H](NC(=O)[C@@H](N)CCC(N)=O)C(=O)N[C@@H](C)C(=O)N[C@H](C(=O)N[C@@H](CCCCN)C(=O)N[C@@H](CCCCN)C(=O)N[C@@H](Cc1ccc(O)cc1)C(=O)N[C@@H](CC(C)C)C(=O)N[C@@H](C)C(=O)N[C@@H](C)C(=O)N[C@H](C(=O)N[C@@H](CC(C)C)C(N)=O)C(C)C)C(C)C` [Peptide 168.3], the EC50 in experiment [4] (setting [10]) is 0.219 nM. On to `CC[C@H](C)[C@H](NC(=O)CNC(=O)[C@H](CC(=O)O)NC(=O)[C@H](CO)NC(=O)[C@@H](N)Cc1c[nH]cn1)C(=O)N[C@@H](Cc1ccccc1)C(=O)N[C@H](C(=O)N[C@@H](CC(=O)O)C(=O)N[C@@H](CO)C(=O)N[C@@H](Cc1ccc(O)cc1)C(=O)N[C@@H](CO)C(=O)N[C@@H](CCCNC(=N)N)C(=O)N[C@@H](Cc1ccc(O)cc1)C(=O)O)[C@@H](C)O` [Peptide 168.4] (H-HSDGIFTDSYSRY-OH), for which the EC50 in experiment [4] (setting [10]) was 316 nM.

Source of the values: paper PMC6838683, “Discovery of Human Signaling Systems: Pairing Peptides to G Protein-Coupled Receptors” (Cell, 2019).
